Assay results taken from ChEMBL document CHEMBL1201862, “PubChem BioAssay data set” (2004).
Calls of active or inactive are those of the source.

Assays:
[1] = HeLa 2N DNA content increase, dose response, cell-based, IC50 (AID 1117349); format: functional
[2] = Concentration-dependent survival of SW480 colon cancer line, luminescence detection with CellTiter-Glo, half-maximal inhibitory concentration (AID 1117338); format: functional
[3] = RKO cell viability reduction, dose response, CellTiter-Glo luminescence (AID 1117322); format: functional
[4] = cytotoxicity toward HCT116 cells – cell-based, CellTiter-Glo luminescence, IC50, dose response (AID 1117332); format: functional; conditions: HCT-116
[5] = SNU-C1 cell viability reduction, dose response, CellTiter-Glo luminescence (AID 1117323); format: functional, cell-based
[6] = cytotoxicity toward Colo320 cells – cell-based, CellTiter-Glo luminescence, IC50, dose response (AID 1117334); format: functional; conditions: COLO 320
[7] = HeLa 4N DNA content increase, dose response, cell-based, IC50 (AID 1117351); format: functional
[8] = cytotoxicity toward HT-29 cells – cell-based, CellTiter-Glo luminescence, IC50, dose response (AID 1117330); format: functional
[9] = CellTiter-Glo luminescent dose response of DLD-1 viability loss (AID 1117352); format: functional
[10] = HCT116 cell viability decrease, GSK3B pretreatment – CellTiter-Glo, IC50, dose response (AID 1117339); format: functional; conditions: HCT-116
Paired box protein Pax-8 = Paired box protein Pax-8 (Homo sapiens, UniProt Q06710); assay: inhibitors of PAX8-driven TPO luciferase reporter, dose response, RMG-I cells, cherry-pick (AID 687027); format: functional, cell-based;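 further: luciferase reporter driven by Pax8 target thyroperoxidase promoter measured by SteadyGlo luminescence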
[11] = PAX2 cell-based inhibition, dose response, selectivity assay for PAX8 inhibitor project, plate reader, dry powder samples (AID 743048); format: functional;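 further: HEK293 cells carrying a WT1 promoter luciferase reporter driven by expressed Pax2; potency is for inhibition of Pax2 driven reporter signal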
[12] = PAX5 activity inhibitors, dose response, selectivity assay for PAX8 inhibitor project, cell-based, plate reader, dry powder samples (AID 743047); format: functional;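 further: HEK293 cells carrying a Pax5 driven CD19 promoter luciferase reporter; potency of inhibitors that lower reporter luminescence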
[13] = cytotoxicity in OVCAR4 cells, dose response, cytotoxicity control for PAX8 inhibitor project, cell-based, plate reader, dry powder, SA11 (AID 743150); format: functional; conditions: OVCAR-4
[14] = cytotoxicity in COV434 cells, dose response, cytotoxicity control for PAX8 inhibitor project, cell-based, plate reader, dry powder, SA7 (AID 743145); format: functional
[15] = cytotoxicity in OV-90 ovarian cancer cells, dose response, PAX8 inhibitor project, cell-based, plate reader, dry powder, SA8 (AID 743149); format: functional
[16] = cytotoxicity dependent on PAX8, dose response, cell-based, plate reader, dry powder (AID 743049); format: functional
[17] = Luminescent dose response cell-based high throughput screening assay for inhibitors of the Janus kinase 2 mutant JAK2V617F. [Related pubchem assays: 1446 (Primary screen.), 1521 (Confirmation assay.), 1486 (Counter screen.)]; format: functional
Large T antigen = Large T antigen (Simian virus 40, UniProt P03070); format: functional, Betapolyomavirus macacae;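 further: Confirmatory-stage PubChem screen for compounds that inhibit SV40 T antigen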
[18] = inhibitors of intracellular T. cruzi replication, confirmation, NIH3T3 host cells, beta-gal luminescence (AID 2044); format: functional, cell-based;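 further: intracellular parasites grown in NIH/3T3 mouse fibroblasts as host cells; luminescent beta-galactosidase reporter signal from transgenic T. cruzi replicating inside host cells; inhibitors lower the luminescence signal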
[19] = cytotoxicity toward NIH3T3 fibroblasts, dose response, counter-screen, cell-based, ATP luminescence, mouse fibroblasts (AID 2010); format: functional;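 further: cells exposed to compound for about 90 hours before reading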
[20] = molecular target: T1, Short transient receptor potential channel 4 (Mus musculus, UniProt Q9QUQ5); assay: mouse TRPC4 channel activators, dose response, cell-based, HEK293 TRPC4/mu-opioid, Fluo-4 calcium (AID 434937); format: functional
T1 sequence (Q9QUQ5 whole entry): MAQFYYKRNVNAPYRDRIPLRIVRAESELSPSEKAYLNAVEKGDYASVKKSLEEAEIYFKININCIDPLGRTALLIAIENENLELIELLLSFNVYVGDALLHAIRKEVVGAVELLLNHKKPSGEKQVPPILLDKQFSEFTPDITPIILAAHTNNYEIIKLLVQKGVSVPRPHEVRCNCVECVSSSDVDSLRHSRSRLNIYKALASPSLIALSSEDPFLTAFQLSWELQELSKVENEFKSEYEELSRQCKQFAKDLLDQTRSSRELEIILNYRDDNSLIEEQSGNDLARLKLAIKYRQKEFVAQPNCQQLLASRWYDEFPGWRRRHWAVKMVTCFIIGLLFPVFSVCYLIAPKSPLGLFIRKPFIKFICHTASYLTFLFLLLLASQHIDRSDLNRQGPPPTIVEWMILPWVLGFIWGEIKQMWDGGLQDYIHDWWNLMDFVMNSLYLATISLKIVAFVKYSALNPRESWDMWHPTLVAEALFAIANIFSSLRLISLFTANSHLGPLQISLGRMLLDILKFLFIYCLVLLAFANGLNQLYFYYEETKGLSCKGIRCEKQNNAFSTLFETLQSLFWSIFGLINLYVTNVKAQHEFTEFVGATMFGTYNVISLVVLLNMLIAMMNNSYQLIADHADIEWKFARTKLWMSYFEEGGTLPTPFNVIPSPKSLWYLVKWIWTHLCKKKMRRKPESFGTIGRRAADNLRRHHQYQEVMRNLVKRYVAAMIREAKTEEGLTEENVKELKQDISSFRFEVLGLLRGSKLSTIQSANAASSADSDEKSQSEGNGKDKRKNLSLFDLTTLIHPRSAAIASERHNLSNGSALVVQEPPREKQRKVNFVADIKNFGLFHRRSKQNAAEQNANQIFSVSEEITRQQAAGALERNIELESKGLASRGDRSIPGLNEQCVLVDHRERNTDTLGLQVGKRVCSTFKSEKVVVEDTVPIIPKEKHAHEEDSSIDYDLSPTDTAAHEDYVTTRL

[21] = molecular target: T2, Heat shock protein HSP 90-alpha (Homo sapiens, UniProt P07900); format: functional, organism-based
Protein Tat = Protein Tat (Human immunodeficiency virus type 1 group M subtype B (isolate HXB2)(HIV-1), UniProt P04608); format: functional;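 further: tat binding to TAR RNA read out by fluorescence polarization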
[22] = THP-1 cell cytotoxicity, dose response, cytotoxicity control for Vif-APOBEC3G degradation inhibitor project, THP-1 cells (AID 1117359); format: functional; conditions: Human immunodeficiency virus 1, THP-1
[23] = molecular target: T2, Heat shock protein HSP 90-alpha; assay: Luminescence-based dose response biochemical high throughput screening assay for inhibitors of the Heat Shock Protein 90 (HSP90). [Related pubchem assays: 1831 (Summary AID.), 1846 (Confirmation screen.), 1789 (Primary screen.)]
[24] = IOSE-T80 ovarian epithelial cell cytotoxicity, dose response, cytotoxicity control for PAX8 inhibitor project, plate reader, dry powder samples (AID 743045); format: functional, cell-based
[25] = A2780 ovarian cancer cell cytotoxicity, dose response, cytotoxicity control, plate reader, dry powder samples (AID 743046); format: functional, cell-based
[26] = NIH:OVCAR-3 ovarian cancer cell cytotoxicity, dose response, PAX8 inhibitor project, plate reader, dry powder samples (AID 743044); format: functional, cell-based
[27] = cytotoxicity in OVCAR8 ovarian cancer cells, dose response, PAX8 project, cell-based, plate reader, dry powder samples (AID 743197); format: functional; conditions: OVCAR-8
[28] = HEp-2 cell cytotoxicity, dose response, cytotoxicity control for RSV inhibitor project, HTS (AID 2410); format: functional; conditions: human respiratory syncytial virus
[29] = Luminescence Cell-Based Dose Response to Identify Activators of 5'UTR Stem-Loop Driven Prion Protein mRNA Translation in H4-C Neuroglioblastoma Cells. [Related pubchem assays: 1829 (Project Summary), 1814 (Primary HTS)]; format: functional
[30] = Luminescence Cell-Based Dose Response HTS to Identify Activators of Luciferase Translation or Activity in H4 […] Cells. [Related pubchem assays: 1829 (Project Summary), 1814 (Primary HTS)]; format: functional
[31] = Luminescence Cell-Based Dose Response to Identify Activators of Luciferase Translation or Activity in H4-C Neuroglioblastoma Cells. [Related pubchem assays: 1829 (Project Summary), 1814 (Primary HTS)]; format: functional
[32] = Luminescence Cell-Based Dose Confirmation to Identify Activators of 5'UTR Stem-Loop Driven Alpha-Synuclein mRNA Translation in H4 Neuroglioblastoma Cells. [Related pubchem assays: 1829 (Project Summary), 1814 (Primary HTS)]; format: functional
[33] = P. falciparum Dd2 growth inhibitors, dose response, SYBR Green, cherry-picked samples (AID 1159567); format: functional, cell-based
[34] = HepG2 cell cytotoxicity, dose response, cytotoxicity control, cherry-picked samples (AID 1159577); format: functional, cell-based

Paired box protein Pax-8, sequence (Q06710 whole entry): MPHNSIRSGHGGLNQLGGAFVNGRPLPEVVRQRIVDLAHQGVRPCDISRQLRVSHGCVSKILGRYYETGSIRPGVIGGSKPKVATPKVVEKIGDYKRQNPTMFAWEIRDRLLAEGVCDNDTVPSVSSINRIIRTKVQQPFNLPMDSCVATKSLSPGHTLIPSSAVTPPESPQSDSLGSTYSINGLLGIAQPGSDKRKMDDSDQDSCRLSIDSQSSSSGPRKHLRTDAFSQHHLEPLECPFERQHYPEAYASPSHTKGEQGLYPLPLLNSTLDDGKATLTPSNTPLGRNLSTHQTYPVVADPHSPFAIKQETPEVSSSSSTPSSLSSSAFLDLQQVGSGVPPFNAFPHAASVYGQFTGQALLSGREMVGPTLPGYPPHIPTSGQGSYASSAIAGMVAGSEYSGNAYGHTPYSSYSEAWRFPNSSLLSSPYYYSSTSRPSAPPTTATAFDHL
Protein Tat, sequence (P04608 whole entry): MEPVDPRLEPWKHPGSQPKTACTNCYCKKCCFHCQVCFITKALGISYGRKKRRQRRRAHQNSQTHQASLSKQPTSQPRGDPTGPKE
Large T antigen, sequence (P03070 whole entry): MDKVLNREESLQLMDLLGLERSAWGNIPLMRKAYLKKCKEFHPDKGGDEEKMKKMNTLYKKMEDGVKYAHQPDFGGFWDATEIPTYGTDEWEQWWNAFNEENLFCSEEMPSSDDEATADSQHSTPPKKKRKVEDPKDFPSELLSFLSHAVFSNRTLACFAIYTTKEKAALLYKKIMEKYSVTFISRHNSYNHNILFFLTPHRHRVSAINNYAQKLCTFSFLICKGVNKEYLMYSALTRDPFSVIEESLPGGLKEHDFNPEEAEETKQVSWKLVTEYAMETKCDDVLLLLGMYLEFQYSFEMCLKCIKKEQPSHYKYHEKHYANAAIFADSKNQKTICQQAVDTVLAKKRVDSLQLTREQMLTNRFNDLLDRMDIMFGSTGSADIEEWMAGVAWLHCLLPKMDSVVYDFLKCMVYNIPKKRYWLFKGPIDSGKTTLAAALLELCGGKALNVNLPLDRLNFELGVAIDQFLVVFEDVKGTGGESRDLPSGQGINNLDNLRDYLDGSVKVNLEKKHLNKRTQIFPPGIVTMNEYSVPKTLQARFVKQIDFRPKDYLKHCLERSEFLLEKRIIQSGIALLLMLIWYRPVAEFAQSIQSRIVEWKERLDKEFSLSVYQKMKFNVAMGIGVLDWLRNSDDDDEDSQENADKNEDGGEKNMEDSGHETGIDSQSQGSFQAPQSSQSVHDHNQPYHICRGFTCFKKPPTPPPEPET

CC[C@H]1CN2CCc3cc(OC)c(OC)cc3[C@@H]2C[C@@H]1C[C@H]1NCCc2cc(OC)c(OC)cc21 [EMETINE]
IC50 [1]: > 10 µM (inactive)
IC50 [2]: 0.001 µM (active)
IC50 [3]: 0.00831 µM (active)
IC50 [4]: 0.0615 µM (active)
IC50 [5]: 0.00228 µM (active)
IC50 [6]: 0.0221 µM (active)
IC50 [7]: > 10 µM (inactive)
IC50 [8]: 0.0163 µM (active)
IC50 [9]: 0.0116 µM (active)
IC50 [10]: 0.001 µM (active)

N#C[C@@H]1[C@H](c2ccc(C#CC3CCCCC3)cc2)[C@H](CO)N1S(=O)(=O)c1ccccc1
AC50 (Paired box protein Pax-8): 11.1 µM (active)
AC50 [11]: > 32 µM (inactive)
AC50 [12]: 29.9 µM (active)
AC50 [13]: > 70 µM (inactive)
AC50 [14]: 36.6 µM (active)
AC50 [15]: 22.2 µM (active)
AC50 [16]: 25.6 µM (active)

Cc1oc2c(O)c(O)ccc2c(=O)c1-c1cnn(-c2ccccc2)c1
IC50 [17]: 2.04 µM (active)
IC50 (Large T antigen): 10.2 µM (active)

Cc1ccc2oc(=O)c3cnn(CC(=O)NC4CCN(Cc5ccccc5)CC4)c3c2c1
EC50 [18]: < 0.1 µM (active)
EC50 [19]: > 60 µM (not active)
EC50 [20]: 2.11 µM (active)
EC50 (cells): 0.079 µM (active)

O=C(Nc1nc(-c2ccco2)c(-c2ccco2)s1)c1ccco1
AC50 [21]: 5.17 µM (active)
IC50 (Protein Tat): > 100 µM (active)
CC50 [22]: > 40 µM (active)

COC(=O)c1ccc(COc2ccc3c(C)c(C)c(=O)oc3c2)o1
IC50 [23]: 1.07 µM (active)

C[C@H]1CCCCO[C@@H](CN(C)Cc2ccc(C(F)(F)F)cc2)[C@@H](C)CN([C@@H](C)CO)C(=O)c2cc(NS(=O)(=O)c3ccc(Cl)cc3)ccc2O1
AC50 (Paired box protein Pax-8): 4.39 µM (active)
AC50 [24]: 36.4 µM (active)
AC50 [25]: 0.528 µM (active)
AC50 [26]: 11 µM (active)
AC50 [27]: 19.7 µM (active)

Cc1ncc(CN2CCCC(CCC(=O)NCc3ccccc3F)C2)s1 (configuration not stated)
EC50 [18]: < 0.1 µM (active)
EC50 [19]: > 60 µM (not active)
EC50 (cells): 0.099 µM (active)

O=C(Nc1nc(-c2ccc3c(c2)OCCO3)cs1)C1CCCC1
CC50 [28]: 21 µM (active)
EC50 [29]: 0.365 µM (active)
EC50 [30]: < 0.1 µM (inconclusive)
EC50 [31]: 0.27 µM (active)
EC50 [32]: 0.247 µM (active)

CCCc1cn(CC[C@H]2CC[C@@H](NS(=O)(=O)c3ccc(-c4ccccc4)cc3)[C@H](CO)O2)nn1
AC50 [33]: 1.31 µM (active)
AC50 [34]: 14.8 µM (active)
